Source: paper PMC5234776, “Study of the Antimicrobial Activity of Tilapia Piscidin 3 (TP3) and TP4 and Their Effects on Immune Functions in Hybrid Tilapia (Oreochromis spp.)” (PLoS ONE, 2017)
≈ marks a conversion by molar mass, not a printed value. Where two headings read alike, the source gives them in different places. Values belong to the compound of their own block, whether it stands above or below them. Peptide text beside a SMILES is read from it.

Tests used:
[1] = tested on: tilapia; assay: Toxicity of peptide alone, tilapia survival; type: in vivo, tilapia (Oreochromis spp.); settings: abdominal cavity, no infection, seven days (S2 Fig)
Experimental: The antimicrobial activities of TP3 and TP4 peptides were analyzed in tilapia infected with lethal amounts of bacteria. Different amounts of V. vulnificus were injected into the abdominal cavities of the fish, and survival rates were recorded as cumulative percentages (S1 Fig). To determine whether TP3 and TP4 had any toxic effects on the tilapia, we injected different doses of TP3 and TP4 (0.1, 1, 10, 20, 30, 40, or 50 μg/fish) into the abdominal cavity and recorded the cumulative survival percentage of the fish (S2 Fig). We also co-treated tilapia with different doses (0.1, 1, 10, 20 μg/fish) of TP3 or TP4 combined with 2x10^4 CFU of V. vulnificus to evaluate tilapia survival following treatment. […] After 14, 21, or 28 days following the first co-treatment with TP3, the tilapia that survived in the 20 μg/fish TP3 experimental group were injected with a second dose of 2x10^4 CFU of V. vulnificus, and the survival rates were measured for another seven days. […] In the co-treatment experiments, at 14, 21, or 28 days after the first co-treatment with TP4, the surviving tilapia in the 20 μg/fish TP4 experimental group received a second injection of 2x10^4 CFU of V. vulnificus, and the survival rates were measured for another seven days.
Supplementary file pone.0169678.s002.pdf: S2 Fig Determination of tilapia survival rates seven days after injection with different concentrations of TP3 or TP4. (a) The survival rates of tilapia injected with TP3 at a dose of 0.1 μg/fish, 1 μg/fish, or 10 μg/fish. (b) The percentage of tilapia surviving after injection with TP4 at 0.1 μg/fish, 1 μg/fish, or 10 μg/fish. (c) The percentage of tilapia surviving after injection with TP3 at 20 μg/fish, 30 μg/fish, 40 μg/fish, or 50 μg/fish. (d) The percentage of tilapia surviving after injection with TP4 at 20 μg/fish, 30 μg/fish, 40 μg/fish, or 50 μg/fish. The control group (control) was injected with PBS alone. (PDF) Click here for additional data file.

[2] = in vivo; design: species or system tilapia (Oreochromis hybrids, Tilapia spp.); settings: male, iv, 0.2 mg/kg
Experimental: The peptide half-life of TP3 and TP4 were investigated in male tilapia (Oreochromis hybrids, Tilapia spp., with a mean body length of 32.33±1.5 cm and a mean body weight of 1117±78.2 g) after intravenous administration of a single dose of 0.2 mg/kg of peptide. The TP3 and TP4 concentrations in serum samples were determined at 10, 30, 60, 120, 180, 240, 300, and 360 minutes for TP3 and at 10, 60, 120, 180, 240, 300, and 360 minutes after dosing for TP4. At each sample collection time point, we anesthetized three fish and collected their blood. The blood was centrifuged to obtain fish serum, which was assessed by liquid chromatography-mass spectrometry/mass spectrometry (LC-MS/MS) at Mission Biotech (Taipei, Taiwan).

[3] = tested on: V. vulnificus; assay: microbe, parasite or virus in culture; type: cell-based, Vibrio vulnificus
Experimental: (§1) To understand the effects of pH on TP3 or TP4, the reagents were dissolved in ddH2O, 1 M HCl or 1 M NaOH to obtain solutions with different pH values. For the temperature-dependent functional study, the TP3 or TP4 was added to a solution in a water bath (Basic life, model BL3002, Taiwan) and incubated for 60 minutes at different temperatures (40, 60, 80, or 100°C). To evaluate the effects of TP3 and TP4 on pepsin and trypsin function, each peptide was incubated for 10 or 30 minutes with different concentrations of pepsin or trypsin (0.1, 1, or 10 μg/ml), and we determined the MIC values after incubating these solutions with cells at 28°C for 720 minutes, according to a previously described MIC experimental protocol.

[4] = tested on: V. vulnificus; assay: Synergy of TP3 or TP4 with ampicillin or kanamycin; type: cell-based, Vibrio vulnificus; settings: V. vulnificus 5×10^3 CFU/ml, 28°C, 720 minutes, 600-nm absorbance
Experimental: We used the co-treatment method to test combinations of TP3 or TP4 with ampicillin or kanamycin to identify synergistic effects. […] The plates were incubated at 28°C for 720 minutes, and after the incubation period, the concentrations of the bacterial solutions were detected using a spectrometer (600-nm absorbance).

[5] = tested on: V. vulnificus; assay: MIC, broth microdilution (NCCLS); type: cell-based, Vibrio vulnificus; settings: 28°C
Experimental: (§2) We determined the MICs of TP3, TP4, kanamycin, and ampicillin against V. vulnificus using a broth microdilution method in accordance with NCCLS guidelines. To measure the killing efficiencies of TP3 and TP4 against V. vulnificus, we prepared TP3 or TP4 solutions at MIC concentrations of 0.5×, 1×, and 2× and these solutions with equal volumes of V. vulnificus (1×10^6 CFU/ml) to each well of a 96-well plate. The plates were incubated at 28°C for 0, 60, 120, 180, 360, 540, 720, or 1440 minutes, and after the incubation period, 50 μL of each bacterial solution were plated on a TCBS plate to obtain viable cell counts. Broth grown in the absence of peptides was used as a negative control. The results were determined using triplicate independent experiments.

[6] = tested on: V. vulnificus; assay: microbe, parasite or virus in culture; type: cell-based, Vibrio vulnificus; settings: V. vulnificus
Experimental: as §2
First, we determined the minimum MICs and minimum bactericidal concentrations (MBCs) of TP3 or TP4 against V. vulnificus.

[7] = tested on: V. vulnificus; assay: microbe, parasite or virus in culture; type: cell-based, Vibrio vulnificus; remark: listed apart in the source
Experimental: as §1, with “[…],” for “and we determined the MIC values after incubating these solutions with cells at 28°C for 720 minutes,”

[8] = tested on: V. vulnificus; assay: Membrane perturbation, NPN uptake; type: cell-based, Vibrio vulnificus; settings: 1×10^6 CFU/ml, 30 minutes, 40 μmol/L NPN; kanamycin: slight increase only
Experimental: We used previously reported methods for the membrane perturbation assay. Briefly, a single colony of V. vulnificus was cultured in TSB medium for 480 minutes at 28°C, and the adjusted culture (1×10^6 CFU/ml) was aliquoted into different tubes with or without TP4 or TP3. After incubating the cells for 30 minutes, we added 40 μmol/L 1-N-phenylnaphthylamine (NPN) and continued to incubate the cells. Tubes containing PBS with NPN and bacterial cells with NPN served as controls. The NPN fluorescence intensity was detected using a fluorescence ELISA reader. All experiments were performed in triplicate, and the results are expressed as means with standard errors (SE).

[9] = agent incubated 60 minutes at 60°C
[10] = agent incubated 60 minutes at 80°C
[11] = agent incubated 60 minutes at 100°C
[12] = agent dissolved in pH = 4 solution
[13] = agent dissolved in pH = 6 solution
[14] = agent dissolved in pH = 8 solution
[15] = agent dissolved in pH = 10 solution
[16] = agent dissolved in pH = 12 solution
[17] = agent incubated 60 minutes at 40°C

SMILES: CC[C@H](C)[C@H](NC(=O)[C@H](C)NC(=O)[C@H](CCCCN)NC(=O)CNC(=O)[C@H](C)NC(=O)[C@H](CO)NC(=O)[C@H](Cc1ccccc1)NC(=O)[C@H](CC(C)C)NC(=O)CNC(=O)CNC(=O)[C@@H](NC(=O)[C@@H](NC(=O)[C@H](Cc1cnc[nH]1)NC(=O)[C@H](Cc1cnc[nH]1)NC(=O)[C@@H](NC(=O)[C@@H](N)Cc1ccccc1)[C@@H](C)CC)[C@@H](C)CC)[C@@H](C)CC)C(=O)N[C@@H](Cc1cnc[nH]1)C(=O)N[C@@H](CCCNC(=N)N)C(=O)N[C@@H](CC(C)C)C(=O)N[C@H](C(=O)N[C@@H](CCCNC(=N)N)C(=O)N[C@@H](CCCNC(=N)N)C(=O)N[C@@H](CCCNC(=N)N)C(=O)N[C@@H](CCCNC(=N)N)C(=O)N[C@@H](CCCNC(=N)N)C(=O)O)[C@@H](C)CC [TP4, tilapia piscidin 4] (H-FIHHIIGGLFSAGKAIHRLIRRRRR-OH)
percent survival after injection of peptide only ([1]; 20 μg/fish): 70.0% | percent survival after injection of peptide only ([1]; 30 μg/fish): 56.7% | percent survival after injection of peptide only ([1]; 40 μg/fish): 63.3% | percent survival after injection of peptide only ([1]; 50 μg/fish): 30.0% | half-life [2]: 1 h

MIC ([3]; Vibrio vulnificus, agent dissolved in pH = 4 solution, read-out: MIC): 3.9 µg/mL (≈ 11.2 µM) | MIC ([3]; Vibrio vulnificus, agent dissolved in pH = 6 solution, read-out: MIC): 3.9 µg/mL (≈ 11.2 µM) | MIC ([3]; Vibrio vulnificus, agent dissolved in pH = 8 solution, read-out: MIC): 3.9 µg/mL (≈ 11.2 µM) | MIC ([3]; Vibrio vulnificus, agent dissolved in pH = 10 solution, read-out: MIC): 3.9 µg/mL (≈ 11.2 µM) | MIC ([3]; Vibrio vulnificus, agent dissolved in pH = 12 solution, read-out: MIC): 15.6 µg/mL (≈ 44.6 µM) | MIC ([3]; Vibrio vulnificus, pH 7, Control of the pH series (pH 7), read-out: MIC): 3.9 µg/mL (≈ 11.2 µM) | change of the MIC of the antibiotic in combination with TP3 or TP4 [4]: halved | MIC [5]: 3.9 µg/mL (≈ 11.2 µM) | MIC ([5]; Vibrio vulnificus, read-out: MIC): 3.91 µg/mL (≈ 11.2 µM) | MIC ([7]; Vibrio vulnificus, 1 h, agent incubated 60 minutes at 40°C, read-out: MIC): 3.9 µg/mL (≈ 11.2 µM) | MIC ([7]; Vibrio vulnificus, RT, read-out: MIC): 3.9 µg/mL (≈ 11.2 µM) | MIC [7, 9]: 3.9 µg/mL (≈ 11.2 µM) | MIC [7, 10]: 3.9 µg/mL (≈ 11.2 µM) | MIC [7, 11]: 3.9 µg/mL (≈ 11.2 µM) | thermostability by MIC and MBC values ([7]; from 40°C to 100°C, in words): very stable
SMILES: CC1(C)S[C@@H]2[C@H](NC(=O)[C@H](N)c3ccccc3)C(=O)N2[C@H]1C(=O)O [ampicillin, reference compound]
MBC ([3]; Vibrio vulnificus, agent dissolved in pH = 4 solution, read-out: MBC): 3.9 µg/mL (≈ 11.2 µM) | MBC ([3]; Vibrio vulnificus, agent dissolved in pH = 6 solution, read-out: MBC): 3.9 µg/mL (≈ 11.2 µM) | MBC ([3]; Vibrio vulnificus, agent dissolved in pH = 8 solution, read-out: MBC): 3.9 µg/mL (≈ 11.2 µM) | MBC ([3]; Vibrio vulnificus, agent dissolved in pH = 10 solution, read-out: MBC): 3.9 µg/mL (≈ 11.2 µM) | MBC ([3]; Vibrio vulnificus, agent dissolved in pH = 12 solution, read-out: MBC): 15.6 µg/mL (≈ 44.6 µM) | MBC ([3]; Vibrio vulnificus, pH 7, Control of the pH series (pH 7), read-out: MBC): 3.9 µg/mL (≈ 11.2 µM) | MBC [6]: 3.9 µg/mL (≈ 11.2 µM) | MBC ([6]; Vibrio vulnificus, read-out: MBC): 3.91 µg/mL (≈ 11.2 µM) | MBC ([7]; Vibrio vulnificus, 1 h, agent incubated 60 minutes at 40°C, read-out: MBC): 3.9 µg/mL (≈ 11.2 µM) | MBC ([7]; Vibrio vulnificus, RT, read-out: MBC): 3.9 µg/mL (≈ 11.2 µM) | MBC [7, 9]: 3.9 µg/mL (≈ 11.2 µM) | MBC [7, 10]: 3.9 µg/mL (≈ 11.2 µM) | MBC [7, 11]: 3.9 µg/mL (≈ 11.2 µM)

MIC [3, 12]: 31.2 µg/mL (≈ 64.4 µM) | MIC [3, 13]: 31.2 µg/mL (≈ 64.4 µM) | MIC [3, 14]: 31.2 µg/mL (≈ 64.4 µM) | MIC [3, 15]: 31.2 µg/mL (≈ 64.4 µM) | MIC [3, 16]: 250 µg/mL (≈ 516 µM) | change of the MIC of the antibiotic in combination with TP3 or TP4 [4]: halved | MIC [5]: 31.2 µg/mL (≈ 64.4 µM) | MIC ([7]; RT): 31.2 µg/mL (≈ 64.4 µM) | MIC [7, 17]: 31.2 µg/mL (≈ 64.4 µM) | MIC [7, 9]: 31.2 µg/mL (≈ 64.4 µM) | MIC [7, 10]: 31.2 µg/mL (≈ 64.4 µM) | MIC [7, 11]: 62.5 µg/mL (≈ 129 µM)
SMILES: NC[C@H]1O[C@H](O[C@H]2[C@H](O)[C@@H](O[C@H]3O[C@H](CO)[C@@H](O)[C@H](N)[C@H]3O)[C@H](N)C[C@@H]2N)[C@H](O)[C@@H](O)[C@@H]1O [kanamycin, reference compound]
MBC ([3]; Control of the pH series (pH 7)): 31.2 µg/mL (≈ 64.4 µM) | MBC [3, 12]: 31.2 µg/mL (≈ 64.4 µM) | MBC [3, 13]: 31.2 µg/mL (≈ 64.4 µM) | MBC [3, 14]: 31.2 µg/mL (≈ 64.4 µM) | MBC [3, 15]: 31.2 µg/mL (≈ 64.4 µM) | MBC [3, 16]: 250 µg/mL (≈ 516 µM) | MBC [6]: 31.2 µg/mL (≈ 64.4 µM) | concentration that increased NPN fluorescence [8]: 100 µg/mL | MBC ([7]; RT): 31.2 µg/mL (≈ 64.4 µM) | MBC [7, 17]: 31.2 µg/mL (≈ 64.4 µM) | MBC [7, 9]: 31.2 µg/mL (≈ 64.4 µM) | MBC [7, 10]: 31.2 µg/mL (≈ 64.4 µM) | MBC [7, 11]: 62.5 µg/mL (≈ 129 µM)
